Assay results from ChEMBL document CHEMBL4296183, “CO-ADD screening of NIH NCI Natural Product Set III” (2020).
Values after ≈ are worked out from the molar mass of the structure shown. Where a name gives a salt, the structure may show the parent alone.

Columns and labels:
Escherichia coli = assay: microbe, parasite or virus in culture; settings: ATCC 25922, 18 h, ASSAY_TEST Inhibition of Bacterial Growth, detection method Absorption (OD600), MEDIA CAMHB, plate type 384well, NBS, CORNING #3640
Description: Antibacterial activity against Escherichia coli ATCC 25922 (CO-ADD:GN_001); MIC in CAMBH media using NBS plates, by OD(600)

Pseudomonas aeruginosa = assay: microbe, parasite or virus in culture; settings: ATCC 27853, 18 h, ASSAY_TEST Inhibition of Bacterial Growth, detection method Absorption (OD600), MEDIA CAMHB, plate type 384well, NBS, CORNING #3640
Description: Antibacterial activity against Pseudomonas aeruginosa ATCC 27853 (CO-ADD:GN_042); MIC in CAMBH media using NBS plates, by OD(600)

Klebsiella pneumoniae = assay: microbe, parasite or virus in culture; settings: ATCC 700603, 18 h, ASSAY_TEST Inhibition of Bacterial Growth, detection method Absorption (OD600), MEDIA CAMHB, plate type 384well, NBS, CORNING #3640
Description: Antibacterial activity against Klebsiella pneumoniae MDR ATCC 70063 (CO-ADD:GN_003); MIC in CAMBH media using NBS plates, by OD(600)

HEK293 = assay: cells; assay type: functional; settings: Homo sapiens, ATCC CRL1573, HEK293; ASSAY_TEST Inhibition of Cell Viability; detection method Resazurin; Fluorescence (ex560/em590); MEDIA DMEM with 10% FBS; plate type 384well; TC; CORNING #3712; time 18 hr
Candida albicans = assay: microbe, parasite or virus in culture; settings: ATCC 90028, ASSAY_TEST Inhibition of Fungal Growth, detection method Absorption (OD530), plate type 384well, NBS, CORNING #3640
Description: Antifungal activity against Candida albicans ATCC 90028 (CO-ADD:FG_001); MIC in YNB media using NBS plates, by OD630

Staphylococcus aureus = assay: microbe, parasite or virus in culture; settings: ATCC 43300, 18 h, ASSAY_TEST Inhibition of Bacterial Growth, detection method Absorption (OD600), MEDIA CAMHB, plate type 384well, NBS, CORNING #3640
Description: Antibacterial activity against Staphylococcus aureus MRSA ATCC 43300 (CO-ADD:GP_020); MIC in CAMBH media, using NBS plates, by OD(600)

Acinetobacter baumannii = assay: microbe, parasite or virus in culture; settings: ATCC 19606, 18 h, ASSAY_TEST Inhibition of Bacterial Growth, detection method Absorption (OD600), MEDIA CAMHB, plate type 384well, NBS, CORNING #3640
Description: Antibacterial activity against Acinetobacter baumannii ATCC 19606 (CO-ADD:GN_034); MIC in CAMBH media using NBS plates, by OD600

Description for Cryptococcus neoformans: Antifungal activity against Cryptococcus neoformans H99 ATCC 208821 (CO-ADD:FG_002); MIC in YNB media using NBS plates, by Resazurin OD(600-570)

SMILES | MIC (Escherichia coli) [µM] | MIC (Pseudomonas aeruginosa) [µM] | MIC (Klebsiella pneumoniae) [µM] | MIC (Cryptococcus neoformans) [µM] | CC50 (HEK293) [µM] | MIC (Candida albicans) [µM] | MIC (Staphylococcus aureus) [µM] | MIC (Acinetobacter baumannii) [µM]
CO[C@H](/C(C)=C/C=C/C(C)=C/c1coc(C)n1)[C@H](C)[C@H]1C[C@@H](O)[C@@]2(C)O[C@H]2/C=C/[C@@H](C)[C@@H]2C[C@@H](CC(=O)O2)C[C@H]2O[C@@H]2C(=O)O1 | > 10 | > 10 | > 10 | 1.25 (≈ 0.782 µg/mL) | > 10 | > 10 | > 10 | > 10
N#Cc1cn(C2OC(CO)C(O)C2O)c2ncnc(N)c12 (centres undefined) | > 10 | > 10 | > 10 | > 10 | > 10 | 0.312 (≈ 0.091 µg/mL) | > 10 | > 10
O=c1ccc2nc3ccc(O)cc3oc-2c1 | > 10 | > 10 | > 10 | > 10 | > 10 | > 10 | > 10 | > 10
CC(=O)C(=O)NC1/C=C(C)\C=C/C(O)C/C=C(C)\C=C/C(O)CC2OC(=O)C1(C)C(=O)C2C (centres undefined) | > 10 | > 10 | > 10 | > 10 | > 10 | > 10 | 10 (≈ 4.6 µg/mL) | > 10
CSC1SCC2C(=O)N(C)C(C(C)C)C(=O)OCC(NC(=O)c3cnc4ccccc4n3)C(=O)NC(C)C(=O)N(C)C1C(=O)N(C)C(C(C)C)C(=O)OCC(NC(=O)c1cnc3ccccc3n1)C(=O)NC(C)C(=O)N2C (centres undefined) | 2.5 (≈ 2.75 µg/mL) | 1.25 (≈ 1.38 µg/mL) | > 10 | 2.5 (≈ 2.75 µg/mL) | > 10 | > 10 | ≤ 0.0781 | > 10
CC1OC(=O)C(C(C)C)NC(=O)C(C(C)C)OC(=O)C(C(C)C)NC(=O)C(C)OC(=O)C(C(C)C)NC(=O)C(C(C)C)OC(=O)C(C(C)C)NC(=O)C(C)OC(=O)C(C(C)C)NC(=O)C(C(C)C)OC(=O)C(C(C)C)NC1=O (centres undefined) | > 10 | > 10 | > 10 | > 10 | > 10 | 0.625 (≈ 0.695 µg/mL) | > 10 | > 10
C=C(C)[C@H]1Cc2c(ccc3c2O[C@@H]2COc4cc(OC)c(OC)cc4[C@@H]2C3=O)O1 [ROTENONE] | > 10 | > 10 | > 10 | 10 (≈ 3.94 µg/mL) | > 10 | > 10 | > 10 | > 10
Cc1c2ccncc2c(C)c2c1[nH]c1ccccc12 [ELLIPTECINE] | > 10 | > 10 | > 10 | 10 (≈ 2.46 µg/mL) | 1.13 | > 10 | 10 (≈ 2.46 µg/mL) | > 10
CN(C)[C@@H]1C(O)=C(C(N)=O)C(=O)[C@@]2(O)C(O)=C3C(=O)c4c(O)ccc(Cl)c4[C@@](C)(O)[C@H]3C[C@@H]12 [CHLORTETRACYCLINE HYDROCHLORIDE] | 5 | 2.5 | > 10 | > 10 | > 10 | > 10 | 1.25 | > 10
CC1/C=C/C=C/CC/C=C/C=C/C=C/C=C/C(OC2OC(C)C(O)C(N)C2O)CC2OC(CC(O)C(O)CCC(O)CC(O)CC(O)CC(=O)OC(C)C(C)C1O)CC(O)C2C(=O)O (centres undefined) | > 10 | > 10 | > 10 | 5 (≈ 4.55 µg/mL) | > 10 | 5 (≈ 4.55 µg/mL) | > 10 | > 10
CO[C@H]1C[C@@H]2CC[C@@H](C)[C@@](O)(O2)C(=O)C(=O)N2CCCC[C@H]2C(=O)O[C@H]([C@H](C)C[C@@H]2CC[C@@H](O)[C@H](OC)C2)CC(=O)[C@H](C)/C=C(\C)[C@@H](O)[C@@H](OC)C(=O)[C@H](C)C[C@H](C)/C=C/C=C/C=C/1C [SIROLIMUS] | > 10 | > 10 | > 10 | 0.156 (≈ 0.143 µg/mL) | > 10 | ≤ 0.0781 | > 10 | > 10
CC1COC2C3=C(C(=O)C=CC3=O)C3OC(=O)C4CC5CCC1C5C2C43 (centres undefined) | – | – | – | – | 1.18 | – | – | –
COc1cc(C)cc2c(-c3c(O)cc(O)c4c3C[C@H](C)N[C@H]4C)cc(-c3cc(-c4c(O)cc(O)c5c4C[C@H](C)N[C@H]5C)c4cc(C)cc(OC)c4c3O)c(O)c12 | > 10 | > 10 | > 10 | > 10 | > 10 | > 10 | > 10 | > 10
CC1OC(CC(=O)O)CC2=C1C(=O)c1c(O)cccc1C2=O (centres undefined) [NANAOMYCIN] | > 10 | > 10 | > 10 | 1.25 (≈ 0.378 µg/mL) | 0.188 | 0.625 (≈ 0.189 µg/mL) | 0.312 (≈ 0.0945 µg/mL) | > 10
COC1=C(N)C(=O)c2nc(-c3nc(C(=O)O)c(C)c(-c4ccc(OC)c(OC)c4O)c3N)ccc2C1=O [STREPTONIGRIN] | 5 (≈ 2.53 µg/mL) | 10 (≈ 5.06 µg/mL) | > 10 | 1.25 (≈ 0.633 µg/mL) | 0.115 | 0.156 (≈ 0.0792 µg/mL) | ≤ 0.0781 | > 10
CC1(C)CCC2=C(O1)c1ccccc1C(=O)C2=O [LAPACHONE] | > 10 | > 10 | > 10 | > 10 | > 10 | > 10 | > 10 | > 10
COc1cc2cc(c1Cl)N(C)C(=O)C[C@H](OC(=O)[C@H](C)N(C)C(C)=O)[C@]1(C)O[C@H]1[C@H](C)[C@@H]1C[C@@](O)(NC(=O)O1)[C@H](OC)/C=C/C=C(\C)C2 [MAYTANSINE] | > 10 | > 10 | > 10 | 0.625 (≈ 0.433 µg/mL) | > 10 | > 10 | > 10 | > 10
COc1cc2oc3cc(=O)cc4oc(-c5ccccc5)cc(c2c2c1CCC(c1ccccc1)O2)c43 (centres undefined) | > 10 | > 10 | > 10 | > 10 | > 10 | > 10 | > 10 | > 10
COC1/C=C/O[C@@]2(C)Oc3c(C)c(O)c4c(O)c(cc(O)c4c3C2=O)NC(=O)/C(C)=C\C=C\[C@H](C)C(O)[C@@H](C)[C@@H](O)[C@@H](C)[C@H](OC(C)=O)[C@@H]1C (some centres undefined) | > 10 | > 10 | > 10 | > 10 | > 10 | > 10 | ≤ 0.0781 | > 10
CC[C@H](C)c1occ2c(O)c(C(=O)O)c(=O)cc-2c1C | > 10 | > 10 | > 10 | > 10 | > 10 | > 10 | > 10 | > 10
C[C@H](N)C(=O)N[C@@H]1[C@H]2C(=C(O)C[C@@H](O)[C@@H]2O)C(=O)O[C@]1(C)C(Cl)Cl [BACTOBOLIN] | 5 (≈ 1.92 µg/mL) | > 10 | > 10 | > 10 | 0.396 | > 10 | 1.25 (≈ 0.479 µg/mL) | > 10
COc1cccc2c1C(=O)c1c(O)c3c(c(O)c1C2=O)C[C@@](O)(C(C)=O)C[C@@H]3OC1CC(N)C(O)C(C)O1 (some centres undefined) | > 10 | > 10 | > 10 | > 10 | 0.613 | > 10 | 5 (≈ 2.64 µg/mL) | > 10
COC1=C2C[C@@H](C)C[C@@H](OC)[C@@H](O)[C@H](C)/C=C(\C)[C@@H](OC(N)=O)[C@H](OC)/C=C\C=C(/C)C(=O)NC(=CC1=O)C2=O | > 10 | > 10 | > 10 | > 10 | > 10 | > 10 | > 10 | > 10
CCC(C(=O)C(C)C(O)C(C)CCc1ccc(C)c(O)c1C(=O)O)C1OC(CC)(C2CCC(O)(CC)C(C)O2)CC1C (centres undefined) | > 10 | > 10 | > 10 | > 10 | > 10 | > 10 | 0.312 (≈ 0.185 µg/mL) | > 10
CC1=C2C(=CC(C)(C)[C@@H]2O)C(=O)[C@](C)(O)C12CC2 [ILLUDIN M] | > 10 | > 10 | > 10 | > 10 | 0.114 | > 10 | > 10 | > 10
N#C[C@H](OC1OC(COC2OC(CO)C(O)C(O)C2O)C(O)C(O)C1O)c1ccccc1 (some centres undefined) | > 10 | > 10 | > 10 | > 10 | > 10 | > 10 | > 10 | > 10
COC[C@H]1OC(=O)c2coc3c2[C@@]1(C)C1=C(C3=O)[C@@H]2CCC(=O)[C@@]2(C)C[C@H]1OC(C)=O [WORTMANNIN] | > 10 | > 10 | > 10 | 5 (≈ 2.14 µg/mL) | 7.83 | 0.625 (≈ 0.268 µg/mL) | > 10 | > 10
